The subject of this data set is B cell. Nature of the data set: Cytotoxicity screening of chemical probes in isolated B cell assay. Data is normalized to DMSO control, the cell viability average of replicates are reported. Reduction of ATP level more than 20% indicate compromised cell health status. The conditions noted are these: human, 1 µM.

The structures appear in SMILES notation. Where “and” joins values, the source holds several entries; their conditions need not be identical. Equal entries are not always repeated. Bridge positions count the residues as written; N and C are the ends. Square brackets hold non-standard residues; d marks the D form. Peptide text beside a SMILES is read from it. * marks the point of attachment. dPhe(4-NHCONH2) = NC(=O)Nc1ccc(C[C@@H](N)C(=O)O)cc1; Dihydroorotyl(S) = O=C1C[C@@H](C(=O)*)NC(=O)N1; dPhe(4-Cl) = N[C@H](Cc1ccc(Cl)cc1)C(=O)O; Phe(4-NH2) = Nc1ccc(C[C@H](N)C(=O)O)cc1; d2Nal = N[C@H](Cc1ccc2ccccc2c1)C(=O)O; Lys(iPr) = CC(C)NCCCC[C@H](N)C(=O)O; d3Pal = N[C@H](Cc1cccnc1)C(=O)O; Orn = NCCC[C@H](N)C(=O)O; Mpa = O=C(O)CCS

Regarding `CCCCC(=O)N(Cc1ccc(-c2ccccc2-c2nnn[nH]2)cc1)[C@H](C(=O)O)C(C)C`, the “Cell Viability” value came to 98.0011%.

For `NS(=O)(=O)c1c(Cl)ccc(NC(=O)Nc2cccc(Cl)c2Cl)c1O`, the “Cell Viability” value amounted to 102.927%.

As to `C[C@@H]1CN(Cc2ccc(F)cc2)CCN1C(=O)COc1ccc(Cl)cc1NC(N)=O` [BX 471 FREE BASE], the “Cell Viability” value is 98.0011% and 103.598%.

For `Cc1ccc(Cn2nc(C(=O)N[C@@H]3C(C)(C)[C@@H]4CC[C@@]3(C)C4)cc2-c2ccc(Cl)c(C)c2)cc1`, the “Cell Viability” value was 98.0011%.

For the molecule `N#Cc1c(O)nc(SCc2cccc(F)c2F)nc1C1CC1`, the “Cell Viability” value came to 104.007%.

As to `COc1ccncc1C(=O)NC(=O)Nc1ccc(-c2ccccc2)c(C(F)(F)F)c1`, the “Cell Viability” value came out at 98.0011%.

For the molecule `Nc1nc2c(c(N3CCNCC3)n1)CCC1=C2[C@@H]2CCCC[C@@H]2O1`, the “Cell Viability” value is reported as 100.079%.

Consider `Cl.O=c1c2cccn2c2ccccc2n1CCCN1CCC(c2ccc(Cl)cc2)CC1`, for which the “Cell Viability” value was 98.0011% and 103.839%.

As to `O=C(NCc1ccc(F)cc1)N1CCN2C(=O)OC(c3ccccc3)(c3ccccc3)C2C1` (stereo not drawn), the “Cell Viability” value came out at 98.0011%.

For the molecule `c1cc(CN2CCCNCCNCCCNCC2)ccc1CN1CCCNCCNCCCNCC1` [PLERIXAFOR], the “Cell Viability” value is on record as 104.498%.

Turning to `C[C@@H](O[C@H]1OCCN(Cc2n[nH]c(=O)[nH]2)[C@H]1c1ccc(F)cc1)c1cc(C(F)(F)F)cc(C(F)(F)F)c1` [APREPITANT], the “Cell Viability” value amounted to 98.0011%.

For `c1ccc(NCc2ccc(CNc3ccccn3)cc2)nc1`, the “Cell Viability” value was 99.8082%.

In the case of `Cc1[nH]cnc1CN1CCc2c(c3ccccc3n2C)C1=O` [ALOSETRON], the “Cell Viability” value is given as 98.0011%.

As to `C[C@]12N[C@H](Cc3ccccc31)c1ccccc12` [DIZOCILPINE], the “Cell Viability” value amounted to 98.0011%.

For `CSc1ccc(C(=O)N[C@@H]2CCCC[C@@H]2NC(=O)CNC(=O)c2cc(C(F)(F)F)ccc2NC(=O)NC(C)C)cc1`, the “Cell Viability” value stood at 102.032%.

Turning to `CCc1nc2c(C)cc(C)nc2[nH]1`, the “Cell Viability” value came to 98.0011%.

Consider `Cc1cc(OCCCS(C)(=O)=O)cc(C)c1-c1cccc(COc2ccc3c(c2)OC[C@H]3CC(=O)O)c1`, for which the “Cell Viability” value came out at 98.0011%.

Consider `CCCn1c(=O)c2[nH]c(C3CCCC3)nc2n(CCC)c1=O` [1,3-DIPROPYL-8-CYCLOPENTYLXANTHINE [DPCPX]], for which the “Cell Viability” value is reported as 98.0011%.

On to `O=C(O)Cc1ccccc1Nc1c(Cl)cccc1Cl` [DICLOFENAC], for which the “Cell Viability” value is 98.0011% and 91.1433%.

On to `Cc1ccc2c(c1CCC(=O)O)CC[C@@H](NS(=O)(=O)c1ccc(Cl)cc1)C2` [TERUTROBAN], for which the “Cell Viability” value is 98.0011%.

For `O=S(=O)(c1ccccc1)c1cnc2c(N3CCNCC3)cccc2c1` [INTEPIRDINE], the “Cell Viability” value is 98.0011%.

Consider `Cc1c(F)cccc1NC(=O)Nc1ccc(Cl)c(S(=O)(=O)[C@H]2CCCNC2)c1O` [DANIRIXIN], for which the “Cell Viability” value is reported as 101.889%.

For `Cc1nnc(C(=O)NC(C)(C)c2nc(C(=O)NCc3ccc(F)cc3)c(O)c(=O)n2C)o1`, the “Cell Viability” value is recorded as 103.493%.

On to `COCCn1c(C)c(C)s/c1=N\C(=O)C1C(C)(C)C1(C)C`, for which the “Cell Viability” value is 98.0011%.

On to `CC(C)C[C@@H]1NC(=O)[C@@H](C(C)C)NC(=O)[C@@H]2CCCN2C(=O)[C@@H](CC(=O)O)NC(=O)[C@@H](Cc2c[nH]c3ccccc23)NC1=O` [BQ-123] (cyclo(L[dW][dD]P[dV])), for which the “Cell Viability” value is given as 98.0011%.

For `C[C@@H](OC[C@@]1(c2ccccc2)CC[C@]2(CCC(=O)N2)CN1)c1cc(C(F)(F)F)cc(C(F)(F)F)c1` [ROLAPITANT], the “Cell Viability” value amounted to 98.0011%.

Consider `O=C(O)c1n[nH]c2c1C[C@H]1C[C@@H]21`, for which the “Cell Viability” value was 98.0011%.

For `COC(c1ccccc1)(c1ccccc1)[C@H](Oc1nc(C)cc(C)n1)C(=O)O` [AMBRISENTAN], the “Cell Viability” value is 98.0011%.

`CC(C)Cc1ccc([C@@H](C)C(=O)NS(C)(=O)=O)cc1` [REPARIXIN]: the “Cell Viability” value is 98.0011% and 100.432%.

Turning to `CC#C[C@@H](CC(=O)O)c1ccc(OCc2cccc(-c3ccc(C(F)(F)F)cc3)c2)cc1`, the “Cell Viability” value worked out at 98.0011%.

Consider `CCOc1nc2cccc(C(=O)O)c2n1Cc1ccc(-c2ccccc2-c2nnn[nH]2)cc1`, for which the “Cell Viability” value is 98.0011%.

For `CSc1cc2c(cc1C(F)(F)F)N(C(=O)Nc1cccnc1)CC2`, the “Cell Viability” value turned out to be 98.0011%.

Take `N#Cc1ccc(NC(=O)Nc2ccccc2Br)c2nn[nH]c12`: the “Cell Viability” value stood at 104.304%.

`COc1cc(C(=O)N(CCCc2ccccc2)Cc2ccc(CC(=O)O)cc2)cc(OC)c1C`: the “Cell Viability” value was 98.0011%.

Take `c1cc(OCCCN2CCCCC2)ccc1CN1CCCCC1` [JNJ-5207852]: the “Cell Viability” value is reported as 98.0011%.

With `CC(C)N(CCCCOCC(=O)NS(C)(=O)=O)c1cnc(-c2ccccc2)c(-c2ccccc2)n1` [SELEXIPAG], the “Cell Viability” value worked out at 98.0011%.

With `Cc1ccc(/C(=C\CN2CCCC2)c2ccccn2)cc1` [TRIPROLIDINE], the “Cell Viability” value was 98.0011%.

Regarding `CC[C@H]1OC(=O)[C@H](C)[C@@H](O[C@H]2C[C@@](C)(OC)[C@@H](O)[C@H](C)O2)[C@H](C)[C@@H](O[C@@H]2O[C@H](C)C[C@H](N(C)C)[C@H]2O)[C@@]2(C)CC(C)=C(O2)[C@H](C)[C@@H](O)[C@]1(C)O`, the “Cell Viability” value amounted to 98.0011%.

For `Cc1cc(Cn2cnc3c2C[C@@H](C(=O)O)N(C(=O)C(c2ccccc2)c2ccccc2)C3)ccc1N(C)C`, the “Cell Viability” value came to 98.0011%.

Turning to `COc1cccc2c1c(NS(=O)(=O)c1ccc(Cl)s1)nn2Cc1cccc(CNC(=O)C(C)(C)O)c1`, the “Cell Viability” value was determined as 103.681%.

Regarding `CC1(C)[C@H]2C[C@H](C/C=C\CCCC(=O)O)[C@@H](NC(=O)c3csc4ccc(O)cc34)[C@@H]1C2`, the “Cell Viability” value was 98.0011%.

Consider `Cc1nc[nH]c1CCN.Cl`, for which the “Cell Viability” value is 98.0011%.

With `Cc1c(C(=O)NN2CCCCC2)nn(-c2ccc(Cl)cc2Cl)c1-c1ccc(Cl)cc1` [RIMONABANT], the “Cell Viability” value was 98.0011%.

With `NC(=O)c1ccc(CNC(=O)NC[C@H]2CN(Cc3ccc(Cl)c(Cl)c3)CCO2)cc1`, the “Cell Viability” value stood at 98.0011%.

For the molecule `CC(=O)N[C@H](Cc1ccc2ccccc2c1)C(=O)N[C@H](Cc1ccc(Cl)cc1)C(=O)N[C@H](Cc1cccnc1)C(=O)N[C@@H](CO)C(=O)N[C@@H](Cc1ccc(NC(=O)[C@@H]2CC(=O)NC(=O)N2)cc1)C(=O)N[C@H](Cc1ccc(NC(N)=O)cc1)C(=O)N[C@@H](CC(C)C)C(=O)N[C@@H](CCCCNC(C)C)C(=O)N1CCC[C@H]1C(=O)N[C@H](C)C(N)=O` [DEGARELIX] (Ac-[d2Nal][dPhe(4-Cl)][d3Pal]S[Phe(4-NH2)](Dihydroorotyl(S))[dPhe(4-NHCONH2)]L[Lys(iPr)]P[dA]-NH2), the “Cell Viability” value worked out at 98.0011%.

For `COc1ccc(C(=O)N2CCN(C(=O)/C=C/c3ccc(Br)cc3)CC2)cc1`, the “Cell Viability” value turned out to be 98.0011%.

For `CC(C)C[C@H](CO)Nc1nc(S[C@@H](C)c2ccccc2)nc2nc(N)sc12` [AZD-8797], the “Cell Viability” value amounted to 97.9584%.

`COC[C@@H](c1ccc(C(F)(F)F)cc1)N1CCN(C2(C)CCN(C(=O)c3c(C)ncnc3C)CC2)C[C@@H]1C.O=C(O)/C=C\C(=O)O` [VICRIVIROC MALEATE]: the “Cell Viability” value amounted to 101.876%.

`CCNC1(C(N)=O)CCN(c2ncnc3c2nc(-c2ccccc2Cl)n3-c2ccc(Cl)cc2)CC1` [OTENABANT]: the “Cell Viability” value is recorded as 98.0011%.

As for `C[C@H](CO)Nc1nc(SCc2cccc(Cl)c2F)nc2[nH]c(=O)sc12`, the “Cell Viability” value is reported as 95.8941%.

As to `Cl.Clc1ccc2nsnc2c1NC1=NCCN1` [TIZANIDINE HYDROCHLORIDE], the “Cell Viability” value came to 98.0011%.

In the case of `CCOc1ccc(C[C@H]2NC(=O)CCSSC[C@@H](C(=O)N3CCC[C@H]3C(=O)N[C@@H](CCCN)C(=O)NCC(N)=O)NC(=O)[C@H](CC(N)=O)NC(=O)[C@H]([C@@H](C)O)NC(=O)[C@H]([C@@H](C)CC)NC2=O)cc1` [ATOSIBAN] ([Mpa][dY](Et)ITNCP[Orn]G-NH2; disulfide 1-6), the “Cell Viability” value was determined as 98.0011%.

Turning to `O=C(NCC(=O)N1CC[C@H](N[C@H]2CC[C@@](O)(c3ccc(-c4ncccn4)cn3)CC2)C1)c1cccc(C(F)(F)F)c1` [PF-4136309], the “Cell Viability” value is given as 99.5458%.

The values are drawn from ChEMBL document CHEMBL5724581, “Toxicity screen in purified B cell assay results for EUbOPEN Chemogenomics Library” (2024).
